What was measured:
[1] = In-vitro release of bimatoprost from fully encapsulated multilayer polymeric films; assay type: physicochemical; conditions: for release profile of bimatoprost: PBS + 2 percent FBS, 37 degrees Celsius
Method: In Vitro release studies were performed using the fully encapsulated polymeric films (wherein the carrier discs are fully encapsulated within the surrounding barrier layers) containing bimatoprost as prepared in Example 6.

[2] = Thermal decomposition of bioactive agent; assay type: physicochemical
[3] = In-vitro release of 5-FU from partially encapsulated multilayer polymeric films
Method: In-Vitro release of 5-Fluoro-Uracil (5-FU) has been quantified over time from Partially Encapsulated Multilayer Polymeric films.
The resulting test articles, 2.5 mm diameter×1.25 mm high, were immersed in a PBS solution supplemented by 2 percent FBS onto a shaker in an incubator at 37 degrees Celsius. Release of 5-FU was quantified by HPLC-UV as follows: after filtration, aliquots were injected onto an Agilent 1100 column (50×4.6 mm×3 um with guard column). The 5-FU detection was performed via a UV Detector (Wavelength: 265 nm). The flow rate was 1.0 mL/min. The mobile phase was a mixture of TFA (0.1 percent) and Acetonitrile.

[4] = fully encapsulated film laminated at 140 degrees Fahrenheit (60 degrees Celsius)
[5] = partially encapsulated film, 30 percent w/w

| release profile of bimatoprost ([1]; fully encapsulated film laminated at 131 degrees Fahrenheit (55 degrees Celsius)) | period of no or undetectable release [1, 4] [days] | release profile of bimatoprost [1, 4] | drug released in the first 24 hours ([1]; monolayer 2 mm diameter carrier film compression molded at 152 degrees Fahrenheit (67 degrees Celsius)) [%] | decomposition temperature [2] [degrees Celsius] | Structure (SMILES) | release profile of 5-FU ([3]; fully encapsulated films with no adhesive layers) | burst duration [3, 5] [days] | rest period after burst [3, 5] | start of delayed sustained release [3, 5] [days] | release profile of 5-FU ([3]; partially encapsulated film, 30 percent w/w, 2.5 mm disk, PBS + 2 percent FBS, 37 degrees Celsius) |
| --- | --- | --- | --- | --- | --- | --- | --- | --- | --- | --- |
| zero-order release | 10 | delayed sustained release | 99 | 70 | CCNC(=O)CCC/C=C\C[C@@H]1[C@@H](/C=C/[C@@H](O)CCc2ccccc2)[C@H](O)C[C@@H]1O [bimatoprost] |  |  |  |  |  |
|  |  |  |  |  | O=c1[nH]cc(F)c(=O)[nH]1 [5-FU, 5-Fluoro-Uracil] | delayed sustained release | 2 | approximately 9 days | ~11 | bimodal release profile |

Source: patent publication US20130164347A1, “MULTILAYER POLYMERIC DRUG DELIVERY SYSTEM” (priority 2011, published 2013)
